Data from patent publication US8076341B2, “Compounds and use thereof” (Vironova AB, priority 2007, dated 2011).

Assays:
HCMV = assay: Test of inhibition of HCMV assembly and egress (modified plaque assay, 3 and 5 dpi); format: cell-based, human cytomegalovirus; details: left until 7 dpi, infected human lung fibroblast cells, IE staining; for Inhibition 3 dpi (%): agent added 3 dpi; for Inhibition 5 dpi (%): agent added 5 dpi
[1] = system: infected and uninfected human lung fibroblasts; assay: Toxicity by propidium iodide staining of cell cultures; format: cell-based; details: method and source not stated
Method: The concentrations of compounds used in the viral experiments were at the μM level. Cellular toxicity for B-220 has been shown for concentrations above 100 μM.

[2] = system: human cytomegalovirus (HCMV) strain AD169 and TB 40; format: cell-based; details: human lung fibroblasts, IE staining

| Structure (SMILES) | Inhibition 3 dpi (%) (HCMV) | Inhibition 5 dpi (%) (HCMV) | concentrations at which cellular toxicity has been shown [1] | Inhibitory effect (%) as % inhibition of infection [2] |
| --- | --- | --- | --- | --- |
| Cc1cc2nc3c4ccccc4n(CCN(C)C)c3nc2cc1C [B-220, 2,3-dimethyl-6-(N,N-dimethylaminoethyl)-6H-indolo(2,3-b)quinoxaline] | 65-85% | 65-80% | above 100 μM | 20% |
| O=C(O)P(=O)(O)O [Foscavir] | 85-100% | 65-85% |  | 20-50% |
| Nc1nc(O)c2ncn(COC(CO)CO)c2n1 [Ganciclovir] | 100% | 80-95% |  | 20-30% |
| Cc1oncc1C(=O)Nc1ccc(C(F)(F)F)cc1 [Leflunomide] | 65-80% | 80-90% |  | 25-50% |
